Measurements: PubChem BioAssay (NCI)
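Interpolation was linear, between the two tested concentrations surrounding the appropriate level; five concentrations were tested over 48 hours in 96-well plates. GI50: concentration for 50% inhibition of growth. TGI: concentration producing complete growth inhibition.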

Legend:
Assay in all cases: NCI-60 cell line screen, 48 h
OVCAR-8 ovarian = test system: OVCAR-8 ovarian
A549 NSCLC = test system: A549 NSCLC
NCI-H23 lung = test system: NCI-H23 lung
M19-MEL melanoma = test system: M19-MEL melanoma
TK-10 renal = test system: TK-10 renal
SK-MEL-5 melanoma = test system: SK-MEL-5 melanoma
UO-31 renal = test system: UO-31 renal
DMS 273 small cell lung = test system: DMS 273 small cell lung
UACC-62 melanoma = test system: UACC-62 melanoma
KM20L2 colon = test system: KM20L2 colon
DLD-1 colon = test system: DLD-1 colon
MDA-MB-231 breast = test system: MDA-MB-231 breast

SMILES | TGI (OVCAR-8 ovarian) [µM] | TGI (A549 NSCLC) [µM] | TGI (NCI-H23 lung) [µM] | TGI (M19-MEL melanoma) [µM] | TGI (TK-10 renal) [µM] | TGI (SK-MEL-5 melanoma) [µM] | TGI (UO-31 renal) [µM] | TGI (DMS 273 small cell lung) [µM] | TGI (UACC-62 melanoma) [µM] | TGI (KM20L2 colon) [µM] | TGI (DLD-1 colon) [µM] | GI50 (A549 NSCLC) [µM] | GI50 (SK-MEL-5 melanoma) [µM] | GI50 (UO-31 renal) [µM] | TGI (MDA-MB-231 breast) [µM] | GI50 (UACC-62 melanoma) [µM] | GI50 (OVCAR-8 ovarian) [µM] | GI50 (NCI-H23 lung) [µM] | GI50 (TK-10 renal) [µM] | GI50 (MDA-MB-231 breast) [µM]
COC(=O)C1CSC(c2csc(CCN)n2)=N1 (stereo unspecified) | > 100 | > 100 | > 100 | > 100 | > 100 | > 100 | > 100 | > 100 | > 100 | > 100 |  |  |  |  |  |  |  |  |  | 
NC1N=Nc2ccccc21 (stereo unspecified) | > 100 | > 100 | > 100 | > 100 | > 100 |  | > 100 | > 100 |  | > 100 | > 100 |  |  |  |  |  |  |  |  | 
CC1=NN(C(=O)Cc2ccccc2)C(=O)/C1=C\c1ccc([N+](=O)[O-])cc1 | > 100 | > 100 | > 100 | > 100 | > 100 | > 100 | > 100 |  | > 100 | > 100 | > 100 |  |  |  |  |  |  |  |  | 
c1ccc2c(c1)SC(=C1Sc3ccccc3S1)S2 | > 100 | > 100 | > 100 | > 100 | > 100 |  | > 100 | > 100 | > 100 | > 100 | > 100 |  |  |  |  |  |  |  |  | 
COc1ccc(Nc2nc3cc(C(F)(F)F)ccc3nc2-c2ccccc2)cc1OC | > 100 | > 100 | > 100 |  | 43 | > 100 | > 100 | 21.8 | > 100 |  | > 100 |  |  |  |  |  |  |  |  | 
CC(C)OP(=S)(NC(=S)c1ccccc1)OC(C)C | > 100 | > 100 | > 100 |  | > 100 | > 100 | > 100 | > 100 | > 100 | > 100 | > 100 |  |  |  |  |  |  |  |  | 
COc1ccc2c(c1)[n+]([O-])c(-c1cccc(Cl)c1)c(N)[n+]2[O-] | > 100 | > 100 | 65.6 | > 100 |  | 39.5 | > 100 | > 100 |  | > 100 | > 100 |  |  |  |  |  |  |  |  | 
CC1(C)NC(=O)N(CCCCCCN2C(=O)NC(C)(C)C2=O)C1=O | > 100 | > 100 | > 100 | > 100 | > 100 |  | > 100 | > 100 | > 100 | > 100 | > 100 |  |  |  |  |  |  |  |  | 
[O-]/N=[N+](/[O-])C1CCCCC1=[N+]1CCOCC1 (stereo unspecified) | > 100 | > 100 | > 100 | > 100 | > 100 |  | > 100 |  | > 100 |  |  |  |  |  |  |  |  |  |  | 
C/C(=N\NC(=S)N1CCN(c2ccccn2)CC1)c1ccccn1 | 20.4 | 13.7 | 11.5 | 2.94 | 13.9 | 13.5 | 6.8 | 15 |  |  | 15.2 | 0.0464 | 0.0688 | 0.141 | 18.5 | < 0.0114 |  |  |  | 
NC(=O)c1cccc2c(N[C@H](CN3CCC3)c3ccc(Cl)c(C(F)(F)F)c3)ncnc12 | 19.2 | 12.4 | 17 |  | 3.34 | 3.27 | 4.91 |  | 8.62 |  |  | 1.47 | 1.7 | 0.306 | 13.7 | 1.13 | 4.55 | 3.08 | 0.156 | 2.44
COc1cc(CC(C)=O)cc(OC)c1 | > 100 | > 100 | > 100 |  | > 100 | > 100 | > 100 |  | > 100 |  |  |  |  |  | > 100 |  |  |  |  | 
COC(=O)Oc1nn(C(=O)OC)c(=O)c2ccccc12 | > 100 | > 100 | > 100 |  | > 100 | > 100 | > 100 |  | > 100 |  |  |  |  |  | > 100 |  |  |  |  | 
OCC1OC2c3ccccc3COC2C1OCc1ccccc1 (stereo unspecified) | > 100 | > 100 | > 100 | > 100 | > 100 | > 100 | > 100 |  | > 100 | > 100 | > 100 |  |  |  |  |  |  |  |  | 
CN(C)C1CCN(Cc2ccc(NC(=O)c3cncc(C#Cc4cnc(N)c5ncccc45)c3)cc2C(F)(F)F)CC1 | 29 | 19.2 | 19.9 |  | 19.5 | 12.9 | 1.78 |  | 13.8 |  |  | 8.25 | 5.51 | 0.999 | 1.61 | 6.09 | 9.11 | 7.9 | 9.69 | 0.742
CS(=O)(=O)N1CCC(n2c(=O)c(Oc3ccc(F)cc3F)cc3cnc(NC4CCOCC4)nc32)CC1 | > 25 | > 25 | > 25 |  | > 25 | > 25 | > 25 |  | > 25 |  |  | > 25 | > 25 | 16.9 | > 25 | > 25 | > 25 | > 25 | 19.9 | > 25
CC#C[C@]1(O)CCC2[C@@H]3CCC4=CC(=O)CCC4=C3[C@@H](c3ccc(N(C)C)cc3)C[C@@]21C (stereo partly specified) | > 100 | > 100 | 62.1 |  | 43.1 | 24.6 | 28.2 |  | 18.6 |  |  |  |  |  | 35.4 |  |  |  |  | 
COC(=O)Cc1c([C@@]2(C)CCCC(C)(C)C2)ccc2c1C(=O)OC2 | > 100 | 32.4 | 34.6 | 69.6 | 59.3 | 25.6 | 15.3 | 21 | 31.4 |  | 12.2 |  |  |  |  |  |  |  |  | 
CN1CCN(C(=O)[C@@]2(C)CC[C@]3(C)CC[C@]4(C)C(=CC[C@@H]5[C@@]6(C)CCC(=O)NC(C)(C)[C@@H]6CC[C@]54C)[C@@H]3C2)CC1 | 14.8 | 5.28 | 8.91 |  | 3.42 | 3.06 | 2.51 |  | 3.03 |  |  | 2.02 | 1.64 | 1.19 | 3.47 | 1.55 | 3.94 | 2.48 | 1.8 | 1.7
COc1cc(OC)cc(Oc2cnc3cc(N)cc(N)c3n2)c1 | 52.5 | > 100 | 28.8 |  | 38.5 | 29.3 | 46.8 |  | 27.8 |  |  | 22.8 | 15.3 | 22.3 | 21 | 14.4 | 22.6 | 14.6 | 16.6 | 6.56
CCc1ccccc1NC(=O)C(C#N)C1=C(Cl)C(=O)c2ccccc2C1=O (stereo unspecified) | 37 | 54.7 | 29.5 |  | 33.7 | 29.6 | 26.6 |  | 31.2 |  |  |  |  |  | 22 |  |  |  |  | 
CN1C(=O)CC2(C)c3cc(O)cc(Br)c3N(C)C12 (stereo unspecified) | > 100 | > 100 | > 100 | > 100 | > 100 | > 100 | > 100 |  | > 100 | > 100 |  |  |  |  |  |  |  |  |  | 
COC(=O)[C@H](CC(C)C)NC(=O)[C@H](Cc1ccccc1)N1CC2C=CC1C2 (stereo partly specified) | > 100 | > 100 | > 100 | > 100 | > 100 | > 100 | > 100 | > 100 | > 100 | > 100 |  |  |  |  |  |  |  |  |  | 
CC1(C)CC(=O)C=C(/C=C/Sc2c(Cl)c(Cl)nc(Cl)c2Cl)C1 | 45 | 29.8 | 19.3 |  | 35.5 | 24.4 | 33.4 |  | 20.8 |  |  | 15.4 | 11.8 | 10 | 20.4 | 8.48 | 19.3 | 6.34 | 19.6 | 7.22
Cc1nn(C(=O)c2ccccc2O)c2c1C(c1ccc(O)cc1O)SC(N)=N2 (stereo unspecified) | > 10 | > 10 | > 10 |  | > 10 | > 10 | 8.02 |  | 5.71 |  |  |  |  |  | > 10 |  |  |  |  | 
CCN1CCC(CC(=O)Nc2n[nH]c3nnc(-c4cccc(F)c4F)cc23)CC1 | > 25 | > 25 | > 25 |  | > 25 | > 25 | > 25 |  | > 25 |  |  | > 25 | > 6.37 | > 25 | > 25 | > 25 | > 25 | > 25 | > 25 | > 25
COC1=CC(c2ccc[nH]2)=N/C1=C\c1[nH]c(C)c(C(=O)CCC(=O)Oc2ccc3c(c2)CCC2C3CC[C@]3(C)[C@@H](O)CC[C@@H]23)c1C (stereo partly specified) | > 100 | 9.18 | > 100 |  | > 100 | 2.91 | 3.73 |  | 4.62 |  |  | 2.47 | 1.46 | 1.59 | 2.55 | 1.7 | 3.94 | 3.56 | 7.68 | 0.46
COC(=O)c1cc(NC(=O)c2cc(NC(=O)c3cc([N+](=O)[O-])n(C)c3)cn2C)cn1C | > 100 | > 100 | > 100 |  | > 100 | 59 | > 100 |  | > 100 |  |  | 64.1 | 5.03 | > 100 | > 100 | 23.8 | > 100 | 24.5 | 46.7 | 51
